What is called pIC50 is the negative decadic logarithm of the IC50, by convention in mol/L.

pIC50: −log10 of the molar value. Bounds are passed on as bounds.

IC50 data for 22 molecules are collected here from patent US20240398828A1, “HETERO-ATOM CONTAINING COMPOUNDS AND USES THEREOF” (Kumquat Biosciences Inc., priority 2021, published 2024).

The target in one experiment is T1, PTPN2 (i.e., TC-PTP) (Homo sapiens, UniProt P17706).
T1 sequence (P17706 1-415): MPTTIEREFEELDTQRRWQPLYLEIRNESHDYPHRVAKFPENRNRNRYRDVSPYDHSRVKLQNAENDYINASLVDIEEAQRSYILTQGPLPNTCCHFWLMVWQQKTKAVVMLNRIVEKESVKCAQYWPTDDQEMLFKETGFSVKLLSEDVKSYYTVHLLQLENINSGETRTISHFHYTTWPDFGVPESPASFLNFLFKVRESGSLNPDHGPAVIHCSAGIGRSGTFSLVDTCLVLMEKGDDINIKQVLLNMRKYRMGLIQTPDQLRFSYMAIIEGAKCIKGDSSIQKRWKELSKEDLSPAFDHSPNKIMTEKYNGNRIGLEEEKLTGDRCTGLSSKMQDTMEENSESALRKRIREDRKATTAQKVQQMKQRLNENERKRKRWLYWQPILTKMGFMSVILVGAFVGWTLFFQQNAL
As to the kind of experiment: Phosphatase activity assay (DiFMUP substrate), PTPN2. In kind it is biochemical. The settings on record: compounds binned ≤1 uM or >1 uM. In a few lines:
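RT, HEPES pH 7.5 buffer with DTT/Tween-20. 10-point inhibitor series premixed ~2 min with enzyme (PTPN2 0.025 ng/ul). Start with DiFMUP at enzyme Km (~45 μM for PTPN2). Read DiFMU ex360/em450 continuously 15–30 min; initial rate vs concentration, 4-parameter fit → IC50.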

Another experiment has as its target T2, PTPN1 (i.e., PTP1B) (Homo sapiens, UniProt P18031).
T2 sequence (P18031 1-435): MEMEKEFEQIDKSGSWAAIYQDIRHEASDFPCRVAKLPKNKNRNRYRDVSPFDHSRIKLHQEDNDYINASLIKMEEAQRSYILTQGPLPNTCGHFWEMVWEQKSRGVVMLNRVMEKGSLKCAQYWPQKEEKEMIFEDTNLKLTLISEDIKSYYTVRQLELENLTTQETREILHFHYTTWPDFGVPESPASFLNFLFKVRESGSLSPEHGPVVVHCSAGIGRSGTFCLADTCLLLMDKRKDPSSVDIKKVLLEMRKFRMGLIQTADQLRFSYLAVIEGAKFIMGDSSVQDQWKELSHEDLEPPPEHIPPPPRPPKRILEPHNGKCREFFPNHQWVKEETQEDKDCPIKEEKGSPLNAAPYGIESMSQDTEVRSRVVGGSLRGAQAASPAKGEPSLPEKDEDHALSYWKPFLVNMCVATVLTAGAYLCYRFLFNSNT
The experiment in a line: Phosphatase activity assay (DiFMUP substrate), PTP1B. The following applies: compounds binned ≤1 uM or >1 uM. Format: biochemical. In a few lines: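 Continuous fluorogenic readout of DiFMUP dephosphorylation at room temperature, substrate set at Km for each phosphatase (about 45 μM in the PTPN2 assay). The buffer contains 1 mM DTT and 0.001% Tween-20, pH 7.5.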

On to `CN(C)CCn1cc(-c2ccc(O)c(N3CC(=O)NS3(=O)=O)c2F)cn1` [Compound 148, 5-(3-(1-(2-(dimethylamino)ethyl)-1H-pyrazol-4-yl)-2-fluoro-6-hydroxyphenyl)-1,2,5-thiadiazolidin-3-one 1,1-dioxide], for which the negative-log IC50 (pIC50) at PTPN2 (i.e., TC-PTP) was not below 6.00; on PTPN1 (i.e., PTP1B), not below 6.00.
Turning to `CC(C)Cn1cc(-c2ccc(O)c(N3CC(=O)NS3(=O)=O)c2F)cn1` [Compound 149, 5-(2-fluoro-6-hydroxy-3-(1-isobutyl-1H-pyrazol-4-yl)phenyl)-1,2,5-thiadiazolidin-3-one 1,1-dioxide], the pIC50 was not below 6.00 on PTPN2 (i.e., TC-PTP) and not below 6.00 on PTPN1 (i.e., PTP1B).
With `O=C1CN(c2c(O)ccc(-c3ccc4ncccc4c3)c2F)S(=O)(=O)N1` [Compound 150, 5-(2-fluoro-6-hydroxy-3-(quinolin-6-yl)phenyl)-1,2,5-thiadiazolidin-3-one 1,1-dioxide], the pIC50 on PTPN2 (i.e., TC-PTP) is not below 6.00; on PTPN1 (i.e., PTP1B), not below 6.00.
Consider `Nc1nc2c(-c3ccc(O)c(N4CC(=O)NS4(=O)=O)c3F)ccc(F)c2s1` [Compound 151, 5-(3-(2-amino-7-fluorobenzo[d]thiazol-4-yl)-2-fluoro-6-hydroxyphenyl)-1,2,5-thiadiazolidin-3-one 1,1-dioxide], for which the negative logarithm of the IC50 (pIC50) on PTPN2 (i.e., TC-PTP) was less than 6.00; on PTPN1 (i.e., PTP1B) it was not below 6.00.
Taken in the same sequence, the figures for `O=C1CN(c2c(O)ccc(-c3c(F)ccc4[nH]ncc34)c2F)S(=O)(=O)N1` [Compound 152, 5-(2-fluoro-3-(5-fluoro-1H-indazol-4-yl)-6-hydroxyphenyl)-1,2,5-thiadiazolidin-3-one 1,1-dioxide] were not below 6.00 and not below 6.00.
The matching figures for `CC(C)CCn1cc(-c2cc(F)c(O)c(N3CC(=O)NS3(=O)=O)c2)cn1` [Compound 153, 5-(3-fluoro-2-hydroxy-5-(1-isopentyl-1H-pyrazol-4-yl)phenyl)-1,2,5-thiadiazolidin-3-one 1,1-dioxide]: less than 6.00 and not below 6.00.
Consider `O=C1CN(c2c(O)ccc(-c3cnn(CCC4CCCOC4)c3)c2F)S(=O)(=O)N1` (centres unmarked) [Compound 154, 5-(2-fluoro-6-hydroxy-3-(1-(2-(tetrahydro-2H-pyran-3-yl)ethyl)-1H-pyrazol-4-yl)phenyl)-1,2,5-thiadiazolidin-3-one 1,1-dioxide], for which the negative logarithm of the IC50 (pIC50) on PTPN2 (i.e., TC-PTP) was not below 6.00; on PTPN1 (i.e., PTP1B), not below 6.00.
Take `CC1C(=O)NS(=O)(=O)N1c1c(O)ccc(-c2cnn(Cc3cccc(F)c3)c2)c1F` (centres unmarked) [Compound 155, 5-(2-fluoro-3-(1-(3-fluorobenzyl)-1H-pyrazol-4-yl)-6-hydroxyphenyl)-4-methyl-1,2,5-thiadiazolidin-3-one 1,1-dioxide]: the pIC50 is not below 6.00 at PTPN2 (i.e., TC-PTP) and not below 6.00 at PTPN1 (i.e., PTP1B).
As to `Cn1ncc2cc(-c3ccc(O)c(N4CC(=O)NS4(=O)=O)c3F)cnc21` [Compound 156, 5-(2-fluoro-6-hydroxy-3-(1-methyl-1H-pyrazolo[3,4-b]pyridin-5-yl)phenyl)-1,2,5-thiadiazolidin-3-one 1,1-dioxide], the pIC50 at PTPN2 (i.e., TC-PTP) was not below 6.00; at PTPN1 (i.e., PTP1B), not below 6.00.
Consider `N#Cc1ccc(Cn2cc(-c3ccc(O)c(N4CC(=O)NS4(=O)=O)c3F)cn2)cc1F` [Compound 157, 4-((4-(3-(1,1-dioxido-4-oxo-1,2,5-thiadiazolidin-2-yl)-2-fluoro-4-hydroxyphenyl)-1H-pyrazol-1-yl)methyl)-2-fluorobenzonitrile], for which the pIC50 at PTPN2 (i.e., TC-PTP) is not below 6.00; on PTPN1 (i.e., PTP1B), not below 6.00.
`O=C1CN(c2c(O)ccc(-c3c[nH]cn3)c2F)S(=O)(=O)N1` [Compound 158, 5-(2-fluoro-6-hydroxy-3-(1H-imidazol-4-yl)phenyl)-1,2,5-thiadiazolidin-3-one 1,1-dioxide]: the negative logarithm of the IC50 (pIC50) is not below 6.00 at PTPN2 (i.e., TC-PTP) and not below 6.00 at PTPN1 (i.e., PTP1B).
Take `O=C1CN(c2c(O)ccc(-c3cnn(Cc4cccc(C(F)(F)F)c4)c3)c2F)S(=O)(=O)N1` [Compound 159, 5-(2-fluoro-6-hydroxy-3-(1-(3-(trifluoromethyl)benzyl)-1H-pyrazol-4-yl)phenyl)-1,2,5-thiadiazolidin-3-one 1,1-dioxide]: the pIC50 is not below 6.00 at PTPN2 (i.e., TC-PTP) and not below 6.00 at PTPN1 (i.e., PTP1B).
Regarding `O=C1CN(c2c(O)ccc(-c3cnn(C4CCCCC4)c3)c2F)S(=O)(=O)N1` [Compound 160, 5-(3-(1-cyclohexyl-1H-pyrazol-4-yl)-2-fluoro-6-hydroxyphenyl)-1,2,5-thiadiazolidin-3-one 1,1-dioxide], the negative logarithm of the IC50 (pIC50) at PTPN2 (i.e., TC-PTP) is not below 6.00; at PTPN1 (i.e., PTP1B) it was not below 6.00.
Regarding `N#Cc1cccc(Cn2cc(-c3ccc(O)c(N4CC(=O)NS4(=O)=O)c3F)cn2)c1` [Compound 161, 3-((4-(3-(1,1-dioxido-4-oxo-1,2,5-thiadiazolidin-2-yl)-2-fluoro-4-hydroxyphenyl)-1H-pyrazol-1-yl)methyl)benzonitrile], the negative logarithm of the IC50 (pIC50) at PTPN2 (i.e., TC-PTP) is not below 6.00; at PTPN1 (i.e., PTP1B), not below 6.00.
Take `O=C1CN(c2c(O)ccc(-c3ccnc(N4CCCC4)c3)c2F)S(=O)(=O)N1` [Compound 162, 5-(2-fluoro-6-hydroxy-3-(2-(pyrrolidin-1-yl)pyridin-4-yl)phenyl)-1,2,5-thiadiazolidin-3-one 1,1-dioxide]: the pIC50 at PTPN2 (i.e., TC-PTP) was not below 6.00; at PTPN1 (i.e., PTP1B), not below 6.00.
As for `CC(C)CCNC1CCN(c2ccc(O)c(N3CC(=O)NS3(=O)=O)c2F)C1` (centres unmarked) [Compound 163, 5-(2-fluoro-6-hydroxy-3-(3-(isopentylamino)pyrrolidin-1-yl)phenyl)-1,2,5-thiadiazolidin-3-one 1,1-dioxide], the negative-log IC50 (pIC50) is not below 6.00 on PTPN2 (i.e., TC-PTP) and not below 6.00 on PTPN1 (i.e., PTP1B).
Regarding `Cc1n[nH]c(C)c1-c1ccc(O)c(N2CC(=O)NS2(=O)=O)c1F` [Compound 164, 5-(3-(3,5-dimethyl-1H-pyrazol-4-yl)-2-fluoro-6-hydroxyphenyl)-1,2,5-thiadiazolidin-3-one 1,1-dioxide], the negative-log IC50 (pIC50) was less than 6.00 at PTPN2 (i.e., TC-PTP) and less than 6.00 at PTPN1 (i.e., PTP1B).
Consider `CC(C)n1cnc(-c2ccc(O)c(N3CC(=O)NS3(=O)=O)c2F)c1` [Compound 165, 5-(2-fluoro-6-hydroxy-3-(1-isopropyl-1H-imidazol-4-yl)phenyl)-1,2,5-thiadiazolidin-3-one 1,1-dioxide], for which the negative-log IC50 (pIC50) on PTPN2 (i.e., TC-PTP) was not below 6.00; on PTPN1 (i.e., PTP1B) it was not below 6.00.
In the case of `O=C1CN(c2c(O)ccc(-c3ccc(OCC4CC4)nc3)c2F)S(=O)(=O)N1` [Compound 166, 5-(3-(6-(cyclopropylmethoxy)pyridin-3-yl)-2-fluoro-6-hydroxyphenyl)-1,2,5-thiadiazolidin-3-one 1,1-dioxide], the pIC50 is not below 6.00 at PTPN2 (i.e., TC-PTP) and not below 6.00 at PTPN1 (i.e., PTP1B).
Consider `O=C1CN(c2c(O)ccc(-c3ccnc(OCC4CC4)c3)c2F)S(=O)(=O)N1` [Compound 167, 5-(3-(2-(cyclopropylmethoxy)pyridin-4-yl)-2-fluoro-6-hydroxyphenyl)-1,2,5-thiadiazolidin-3-one 1,1-dioxide], for which the pIC50 on PTPN2 (i.e., TC-PTP) was not below 6.00; on PTPN1 (i.e., PTP1B), not below 6.00.
As to `O=C1CN(c2c(O)ccc(-c3n[nH]c4ccccc34)c2F)S(=O)(=O)N1` [Compound 168, 5-(2-fluoro-6-hydroxy-3-(1H-indazol-3-yl)phenyl)-1,2,5-thiadiazolidin-3-one 1,1-dioxide], the pIC50 at PTPN2 (i.e., TC-PTP) was less than 6.00; on PTPN1 (i.e., PTP1B) it was less than 6.00.
Regarding `N#Cc1cc(Cn2cc(-c3ccc(O)c(N4CC(=O)NS4(=O)=O)c3F)cn2)ccc1F` [Compound 169, 5-((4-(3-(1,1-dioxido-4-oxo-1,2,5-thiadiazolidin-2-yl)-2-fluoro-4-hydroxyphenyl)-1H-pyrazol-1-yl)methyl)-2-fluorobenzonitrile], the pIC50 on PTPN2 (i.e., TC-PTP) is not below 6.00; at PTPN1 (i.e., PTP1B), not below 6.00.
